Results reported in US20240408027A1, “HIGH DRUG LOADING POLYMERS” (priority 2021, published 2024).

Test: Drug loading of paclitaxel, etoposide, chloroquine into core library (Example 3)

## CC(=O)O[C@H]1C(=O)[C@@]2(C)[C@H]([C@H](OC(=O)c3ccccc3)[C@]3(O)C[C@H](OC(=O)[C@H](O)[C@@H](NC(=O)c4ccccc4)c4ccccc4)C(C)=C1C3(C)C)[C@]1(OC(C)=O)CO[C@@H]1C[C@@H]2O [Paclitaxel, paclitaxel]
polymer:drug 1:1
  core composition at loading maximum: 90 % B

## CCN(CC)CCCC(C)Nc1ccnc2cc(Cl)ccc12 (stereo not drawn) [chloroquine]
polymer:drug 1:1
  loading trend with core composition: increased loading with increasing H-bonding

## COc1cc([C@@H]2c3cc4c(cc3[C@@H](O[C@@H]3O[C@@H]5CO[C@@H](C)O[C@H]5[C@H](O)[C@H]3O)[C@H]3COC(=O)[C@H]23)OCO4)cc(OC)c1O [etoposide]
100% B core
  LE+LC, fold higher in the absence of H-bonding groups in the core: > 2 ×
